Test results taken from ChEMBL document CHEMBL3046835, “Insecticidal activity influence of beta-cypermethrin on the pathogenicity of Beauveria bassiana against Aleurodicus disperses” (Crop Prot, 2013).
≈ marks a conversion by molar mass, not a printed value.

Tests used:
[1] = system: Beauveria bassiana; assay: Inhibition of Beauveria bassiana Bb-N1 mycelial growth at 10 mg/L measured at 27 +/-2 degC after 10 days (reference value: 2.4 +/-0.19%); type: organism-based; design: scale not given: the % may be the effect or the level left; conditions: in vivo, 240 h
[2] = system: Aleurodicus dispersus; assay: Insecticidal activity against third-instar nymph stage of Aleurodicus dispersus in guava plant leaves assessed as mortality at 4 mg/L applied via hand sprayer measured after 3 days under field conditions (reference value: 3%); type: functional; conditions: 72 h
[3] = system: Aleurodicus dispersus; assay: Insecticidal activity against third-instar nymph stage of Aleurodicus dispersus in guava plant leaves assessed as mortality at 4 mg/l measured after 9 days under laboratory conditions (reference value: 3%); type: functional; conditions: 216 h
[4] = system: Aleurodicus dispersus; assay: Insecticidal activity against third-instar nymph stage of Aleurodicus dispersus in guava plant leaves assessed as mortality at 8 mg/L applied via hand sprayer measured after 3 days in presence of 10^8 Beauveria bassiana conidial suspension under field conditions (reference value: 22.2 +/-3.15%); type: functional; conditions: 72 h
[5] = system: Aleurodicus dispersus; assay: Insecticidal activity against third-instar nymph stage of Aleurodicus dispersus in guava plant leaves assessed as mortality at 8 mg/L applied via hand sprayer measured after 6 days under field conditions (reference value: 3.5%); type: functional; conditions: 144 h
[6] = system: Aleurodicus dispersus; assay: Insecticidal activity against third-instar nymph stage of Aleurodicus dispersus in guava plant leaves assessed as mortality at 2 mg/L applied via hand sprayer measured after 3 days in presence of 10^8 Beauveria bassiana conidial suspension under field conditions (reference value: 22.2 +/-3.15%); type: functional; conditions: 72 h
[7] = system: Beauveria bassiana; assay: Effect on Beauveria bassiana Bb-N1 conidial production at <8 mg/L measured at 27 +/-2 degC after 10 days; type: ADME, organism-based; conditions: in vivo, 240 h
[8] = system: Aleurodicus dispersus; assay: Insecticidal activity against third-instar nymph stage of Aleurodicus dispersus in guava leaves assessed as mortality at 20 mg/l treated for 15 s measured at 27 +/-2 degC after 48 hr (reference value: 3%); type: functional
[9] = system: Aleurodicus dispersus; assay: Insecticidal activity against third-instar nymph stage of Aleurodicus dispersus in guava plant leaves assessed as mortality at 2 mg/L applied via hand sprayer measured after 3 days under field conditions (reference value: 3%); type: functional; conditions: 72 h
[10] = system: Aleurodicus dispersus; assay: Insecticidal activity against third-instar nymph stage of Aleurodicus dispersus in guava leaves assessed as mortality at 5 mg/l treated for 15 s measured at 27 +/-2 degC after 24 hr (reference value: 2%); type: functional
[11] = system: Aleurodicus dispersus; assay: Insecticidal activity against third-instar nymph stage of Aleurodicus dispersus in guava plant leaves assessed as mortality at 8 mg/L applied via hand sprayer measured after 9 days in presence of 10^8 Beauveria bassiana conidial suspension under field conditions (reference value: 42.3 +/-3.58%); type: functional; conditions: 216 h
[12] = system: Aleurodicus dispersus; assay: Insecticidal activity against third-instar nymph stage of Aleurodicus dispersus in guava plant leaves assessed as mortality at 2 mg/l measured after 3 days under laboratory conditions (reference value: 2%); type: functional; conditions: 72 h
[13] = system: Beauveria bassiana; assay: Effect on Beauveria bassiana Bb-N1 conidial germination at 8 mg/L measured at 27 +/-2 degC after 24 hr (reference value: 94.85 +/-2.13%); type: ADME, organism-based; conditions: in vivo
[14] = system: Aleurodicus dispersus; assay: Insecticidal activity against third-instar nymph stage of Aleurodicus dispersus in guava leaves assessed as mortality at 40 mg/l treated for 15 s measured at 27 +/-2 degC after 24 hr (reference value: 2%); type: functional
[15] = system: Aleurodicus dispersus; assay: Insecticidal activity against third-instar nymph stage of Aleurodicus dispersus in guava leaves assessed as mortality treated for 15 s measured at 27 +/-2 degC after 24 hr; type: functional
[16] = system: Aleurodicus dispersus; assay: Insecticidal activity against third-instar nymph stage of Aleurodicus dispersus in guava plant leaves assessed as mortality at 2 mg/L applied via hand sprayer measured after 6 days in presence of 10^8 Beauveria bassiana conidial suspension under field conditions (reference value: 26.9 +/-3.04%); type: functional; conditions: 144 h
[17] = system: Aleurodicus dispersus; assay: Insecticidal activity against third-instar nymph stage of Aleurodicus dispersus in guava plant leaves assessed as mortality at 2 mg/L applied via hand sprayer measured after 6 days under field conditions (reference value: 3.5%); type: functional; conditions: 144 h
[18] = system: Aleurodicus dispersus; assay: Insecticidal activity against third-instar nymph stage of Aleurodicus dispersus in guava plant leaves assessed as mortality at 8 mg/l measured after 9 days in presence of 10^8 Beauveria bassiana conidial suspension under laboratory conditions (reference value: 45.7 +/-3.18%); type: functional; conditions: 216 h
[19] = system: Aleurodicus dispersus; assay: Insecticidal activity against third-instar nymph stage of Aleurodicus dispersus in guava plant leaves assessed as mortality at 4 mg/l measured after 3 days under laboratory conditions (reference value: 2%); type: functional; conditions: 72 h
[20] = system: Aleurodicus dispersus; assay: Insecticidal activity against third-instar nymph stage of Aleurodicus dispersus in guava plant leaves assessed as mortality at 2 mg/L applied via hand sprayer measured after 9 days under field conditions (reference value: 4%); type: functional; conditions: 216 h
[21] = system: Aleurodicus dispersus; assay: Insecticidal activity against third-instar nymph stage of Aleurodicus dispersus in guava plant leaves assessed as mortality at 8 mg/l measured after 3 days in presence of 10^8 Beauveria bassiana conidial suspension under laboratory conditions (reference value: 24.3 +/-1.03%); type: functional; conditions: 72 h
[22] = system: Aleurodicus dispersus; assay: Insecticidal activity against third-instar nymph stage of Aleurodicus dispersus in guava plant leaves assessed as mortality at 4 mg/L applied via hand sprayer measured after 3 days in presence of 10^8 Beauveria bassiana conidial suspension under field conditions (reference value: 22.2 +/-3.15%); type: functional; conditions: 72 h
[23] = system: Aleurodicus dispersus; assay: Insecticidal activity against third-instar nymph stage of Aleurodicus dispersus in guava plant leaves assessed as mortality at 2 mg/l measured after 6 days in presence of 10^8 Beauveria bassiana conidial suspension under laboratory conditions (reference value: 32.8 +/-2.39%); type: functional; conditions: 144 h
[24] = system: Aleurodicus dispersus; assay: Insecticidal activity against third-instar nymph stage of Aleurodicus dispersus in guava plant leaves assessed as mortality at 2 mg/l measured after 9 days in presence of 10^8 Beauveria bassiana conidial suspension under laboratory conditions (reference value: 45.7 +/-3.18%); type: functional; conditions: 216 h
[25] = system: Aleurodicus dispersus; assay: Insecticidal activity against third-instar nymph stage of Aleurodicus dispersus in guava plant leaves assessed as mortality at 8 mg/l measured after 9 days under laboratory conditions (reference value: 3%); type: functional; conditions: 216 h
[26] = system: Aleurodicus dispersus; assay: Insecticidal activity against third-instar nymph stage of Aleurodicus dispersus in guava plant leaves assessed as mortality at 4 mg/L applied via hand sprayer measured after 6 days in presence of 10^8 Beauveria bassiana conidial suspension under field conditions (reference value: 26.9 +/-3.04%); type: functional; conditions: 144 h
[27] = system: Aleurodicus dispersus; assay: Insecticidal activity against third-instar nymph stage of Aleurodicus dispersus in guava plant leaves assessed as mortality at 8 mg/L applied via hand sprayer measured after 6 days in presence of 10^8 Beauveria bassiana conidial suspension under field conditions (reference value: 26.9 +/-3.04%); type: functional; conditions: 144 h
[28] = system: Aleurodicus dispersus; assay: Insecticidal activity against third-instar nymph stage of Aleurodicus dispersus in guava plant leaves assessed as mortality at 2 mg/l measured after 3 days in presence of 10^8 Beauveria bassiana conidial suspension under laboratory conditions (reference value: 24.3 +/-1.03%); type: functional; conditions: 72 h
[29] = system: Aleurodicus dispersus; assay: Insecticidal activity against third-instar nymph stage of Aleurodicus dispersus in guava plant leaves assessed as mortality at 4 mg/L applied via hand sprayer measured after 9 days in presence of 10^8 Beauveria bassiana conidial suspension under field conditions (reference value: 42.3 +/-3.58%); type: functional; conditions: 216 h

How did the Activity [1] turn out when `CC1(C)[C@H](C=C(Cl)Cl)[C@H]1C(=O)O[C@@H](C#N)c1cccc(Oc2ccccc2)c1` [BETA-CYPERMETHRIN] was run?
Its Activity is 8.2%.

And the mortality at 4 µg/mL [2]?
Its mortality at 4 µg/mL is 26.7%.

What about the mortality at 4 µg/mL [3] of the same compound?
The mortality at 4 µg/mL was 34.1%.

And the mortality at 8 µg/mL [4]?
Its mortality at 8 µg/mL is 42.3%.

And the mortality at 8 µg/mL [5]?
Its mortality at 8 µg/mL is 29.4%.

And the mortality at 2 µg/mL [6]?
The mortality at 2 µg/mL was 32.3%.

What about the Activity [7] of the same compound?
Its Activity is “Non-toxic”.

And the mortality at 20 µg/mL [8]?
The mortality at 20 µg/mL was 52.8%.

What about the mortality at 2 µg/mL [9] of the same compound?
The mortality at 2 µg/mL was 20.9%.

What about the mortality at 5 µg/mL [10] of the same compound?
The mortality at 5 µg/mL was 16.2%.

And the mortality at 8 µg/mL [11]?
The mortality at 8 µg/mL was 63.7%.

And the mortality at 2 µg/mL [12]?
The mortality at 2 µg/mL was 28.7%.

What about the germination rate [13] of the same compound?
Its germination rate is 92.31%.

And the mortality at 40 µg/mL [14]?
The mortality at 40 µg/mL was 46.6%.

And the LC95 [15]?
The LC95 was 1551.51 µg/mL (≈ 3730 µM).

What about the LC50 ([15]; Aleurodicus dispersus, Nymph stage, 24 h) of the same compound?
Its LC50 is 50 µg/mL (≈ 120 µM).

And the mortality at 2 µg/mL [16]?
The mortality at 2 µg/mL was 50.9%.

And the mortality at 2 µg/mL [17]?
The mortality at 2 µg/mL was 20.9%.

What about the mortality at 8 µg/mL [18] of the same compound?
The mortality at 8 µg/mL was 80.6%.

And the mortality at 4 µg/mL [19]?
Its mortality at 4 µg/mL is 34.1%.

And the mortality at 2 µg/mL [20]?
The mortality at 2 µg/mL was 20.9%.

And the mortality at 8 µg/mL [21]?
The mortality at 8 µg/mL was 76.1%.

What about the mortality at 4 µg/mL [22] of the same compound?
The mortality at 4 µg/mL was 37.6%.

What about the mortality at 2 µg/mL [23] of the same compound?
The mortality at 2 µg/mL was 75.3%.

And the mortality at 2 µg/mL [24]?
The mortality at 2 µg/mL was 75.3%.

What about the mortality at 8 µg/mL [25] of the same compound?
Its mortality at 8 µg/mL is 39.3%.

And the mortality at 4 µg/mL [26]?
The mortality at 4 µg/mL was 60.5%.

What about the mortality at 8 µg/mL [27] of the same compound?
Its mortality at 8 µg/mL is 62.2%.

And the mortality at 2 µg/mL [28]?
Its mortality at 2 µg/mL is 67.7%.

What about the mortality at 4 µg/mL [29] of the same compound?
Its mortality at 4 µg/mL is 62.4%.
